# Entries after “also recorded” stand apart in the source; their conditions may differ.
# Tests used:
# A549 cells = assay: Cell survival of c-CBL wild type and mutant transfectants after treatment with c-Met and EGFR inhibitors (cell counting); format: cell-based, Human; settings: for sensitivity (cell survival) of c-CBL mutant versus wild type c-CBL transfected cells: A549 cells transiently transfected with c-CBL WT or mutants SH, Q, V, W*, different concentrations, 48 h treatment
# Experimental: A549 and H226 cells were transiently transfected with empty vector (EV) or c-CBL wild type (WT) and mutants' constructs (SH: S80N/H94Y, Q: Q249E, V: V391I, W*: W802*). At 24 h, cells were recollected and seeded 5×10^4 cells/well in 24 well culture plate. Another 24 h, cells were treated with c-Met inhibitor SU11274 and EGFR inhibitor Tarceva in different concentrations. Cell survival was detected by cell counting after 48 h treatment.
# H358 NSCLC cells = assay: MTT assay of live cells after drug treatment of H358 cells with c-CBL knockdown; format: cell-based; settings: H358 clone 27 cells, 72 h after drug treatment
# Experimental: H358 clone 27 cells expressing high levels of c-CBL were knocked down using a lentiviral construct (sh 27). Cells were treated with the indicated RTK inhibitors, PI-3K inhibitors or cisplatin (CDDP). Live cells were assessed 72 h after drug treatment using a MTT assay.
# The effects of silencing wt c-CBL in combination with a variety of drugs that inhibit EGFR (erlotinib [Tarceva]), PI-3K (NVP, Wortmanin), MET (SU11274) on the growth of H358 NSCLC cells that endogenously express c-CBL-Wt were investigated. The H358 cells, which expressed high levels of c-CBL, were knocked down using a lentiviral construct (sh 27, directed against c-CBL-Wt in H358 clone 27 cells (black), or the sh SCR scrambled RNA control (white)). Cells were treated with RTK and P1-3K inhibitors, cisplatin (CDDP). Live cells were assessed 72 hours after drug treatment using an MTT assay.
# Met kinase = settings: cited from earlier work
# EGFR = settings: refractory advanced NSCLC; cited from earlier work
Structure (SMILES),"sensitivity of A549 cells containing c-CBL mutants versus wild type c-CBL (A549 cells; 1 μM SU11274, mutants S80N/H94Y, Q249E, V391I, W802* (FIG. 23))",sensitivity (cell survival) of c-CBL mutant versus wild type c-CBL transfected cells (A549 cells),live cells: c-CBL-Wt knockdown (sh 27) versus scrambled shRNA control (H358 NSCLC cells),"cell growth, cell cycle and apoptosis (Met kinase)",Met kinase autophosphorylation (Met kinase; sites important for PI3K and Ras pathway activation),response to EGFR blockade (EGFR)
Cc1[nH]c(/C=C2\C(=O)Nc3ccc(S(=O)(=O)N(C)c4cccc(Cl)c4)cc32)c(C)c1C(=O)N1CCN(C)CC1 [SU11274],c-CBL mutants are more sensitive than wild type c-CBL,had more sensitivity to the c-Met inhibitor SU11274; also recorded: c-CBL mutants had more sensitivity to c-Met inhibitor SU11274 than wild type c-CBL,silencing c-CBL-Wt significantly reduced the ability of SU11274 (also referred to as SU) to kill NSCLC cells,time- and dose-dependent reduced cell growth and induced G1 cell cycle arrest and apoptosis,reduced,–
"C#Cc1cccc(Nc2ncnc3cc(OCCOC)c(OCCOC)cc23)c1 [Tarceva, erlotinib]",–,no difference; also recorded: no differential effects,–,–,–,5-15%

# — patent US11390922B2, “C-CBL mutations and uses thereof” (University of Chicago, priority 2010, dated 2022)
